Biological target: T1, GCase (Homo sapiens, UniProt P04062)
T1 construct: endogenous in cells; host or cells: HeLa cells
T1 sequence (P04062 40-536): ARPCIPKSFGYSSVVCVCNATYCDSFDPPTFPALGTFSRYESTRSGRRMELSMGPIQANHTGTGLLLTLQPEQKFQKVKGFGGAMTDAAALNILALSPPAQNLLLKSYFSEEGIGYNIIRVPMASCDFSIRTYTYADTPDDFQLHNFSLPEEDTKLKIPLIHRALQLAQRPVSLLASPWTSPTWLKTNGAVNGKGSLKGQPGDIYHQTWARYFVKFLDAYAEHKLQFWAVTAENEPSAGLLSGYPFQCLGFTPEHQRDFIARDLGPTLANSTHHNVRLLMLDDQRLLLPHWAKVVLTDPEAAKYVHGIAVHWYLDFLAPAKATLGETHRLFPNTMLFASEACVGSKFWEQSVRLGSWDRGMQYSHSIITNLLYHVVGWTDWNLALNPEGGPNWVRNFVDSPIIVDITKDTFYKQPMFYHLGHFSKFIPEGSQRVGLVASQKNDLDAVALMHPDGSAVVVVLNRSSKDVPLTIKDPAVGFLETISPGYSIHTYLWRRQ
Assay: activation of GCase in a live cell PFB assay in HELA cells
Format: cell-based
Method: Exemplary compounds were evaluated for activation of GCase in a live cell PFB assay in HELA cells (essentially as described in Ysselstein et al., “LRRK2 kinase activity regulates lysosomal glucocerebrosidase in neurons derived from Parkinson's disease patients” Nature Communications (2019) 10:5570). […] EC50 ranges: A: <10 μM; B: >10-50 μM; C: >50-100 μM; D: >100 μM.

[1] = activation of GCase, EC50 ranges

Row | Compound | EC50 [1] [µM] | EC50 (EC50 given as range classes) [µM]
1 | O=C(c1ccccc1C(F)(F)F)N1CC2(CCN(c3cnc4cnn(CC(F)F)c4n3)C2)C1 [Cmpd 392] | – | < 10
2 | FC(F)Cn1ncc2ncc(N3CCC4(CC3)CCN(c3cnc(C(F)(F)F)cc3Cl)C4)nc21 [Cmpd 754] | > 100 | –
3 | O=C([C@H]1CCn2c1nccc2=O)N1CCC2(C1)CN(c1ccnc(C(F)(F)F)c1)C2 [Cmpd 1061] | 50 to 100 | –
4 | Cc1cc(N2CC3(CCN(c4cnc5cnn(CC(F)F)c5n4)C3)C2)nc(C(F)(F)F)n1 [Cmpd 404] | – | < 10
5 | Cc1nn(CC(F)F)c2nc(N3CC4(CC3=O)CN(c3ccnc(C(F)(F)F)c3)C4)cnc12 [Cmpd 1007] | – | < 10
6 | O=C1CC2(CN1c1cncc(C(F)(F)F)n1)C1CCC2CN(c2cnc3cnn(CC(F)F)c3n2)C1 (stereo not drawn) [Cmpd 806] | – | 10 to 50
7 | FC(F)Cn1ncc2ncc(N3CCCC4(CCN(c5cncc(C(F)(F)F)c5)CC4)C3)nc21 [Cmpd 221] | – | 10 to 50
8 | O=C1N(c2ccnc(C(F)(F)F)c2)C(=O)C2(CCN(c3cnc4cnn(CC(F)F)c4n3)CC2)N1Cc1cc(F)cc(F)c1 [Cmpd 817] | – | < 10
9 | O=C1N(c2cnc3cnn(CC(F)F)c3n2)CCC12CCN(c1ccnc(C(F)(F)F)c1)C2 (stereo not drawn) [Cmpd 518] | > 100 | –
10 | FC(F)Cn1ncc2ncc(N3CCC4(CCN(c5cc(C(F)(F)F)ccn5)CC4)CC3)nc21 [Cmpd 811] | – | < 10
11 | FC(F)Cn1ncc2ncc(N3CCC4(CCCN(c5cncc(C(F)(F)F)c5)C4)CC3)nc21 [Cmpd 215] | – | < 10
12 | FC(F)Cn1ncc2ncc(N3CCC4(CCN(c5cncc(C(F)(F)F)n5)CC4)CC3)nc21 [Cmpd 813] | – | < 10
13 | FC(F)(F)c1ccc(N2CCC3(CCN(c4cncc(-c5nncs5)n4)CC3)C2)cn1 [Cmpd 233] | – | < 10
14 | FC(F)Cn1ncc2ncc(N3CCOC4(CCN(c5cccc(C(F)(F)F)n5)CC4)C3)nc21 [Cmpd 211] | – | 10 to 50
15 | Cc1ncc(N2CC3(CCN(c4cnc5cnn([C@@H]6CCOC6)c5n4)C3)C2)c(C(F)(F)F)n1 [Cmpd 653] | > 100 | –
16 | O=C1N(c2ccc(C(F)(F)F)nc2)CCC12CC1CCC(C2)N1c1cnc2cnn(CC(F)F)c2n1 (stereo not drawn) [Cmpd 797] | – | < 10
17 | FC(F)Cn1ncc2ncc(N3CCC4(CCN(c5ccnc(C(F)(F)F)c5)CC4)CC3)nc21 [Cmpd 812] | – | < 10
18 | CCc1nn(C2COC2)c2nc(N3CCC4(CN(c5ccnc(C(F)(F)F)c5)C4)C3)cnc12 [Cmpd 1069] | 10 to 50 | –
19 | O=C1CC2(CCN(c3cnc4cnn(C5COC5)c4n3)CC2)CN1c1ccc(C(F)(F)F)nc1 [Cmpd 856] | 10 to 50 | –
20 | FC(F)Cn1ncc2ncc(N3CCCC4(CN(c5ccnc(C(F)(F)F)c5)C4)C3)nc21 [Compound 12, 6-[1-(2,2-difluoroethyl)-1H-pyrazolo[3,4-b]pyrazin-6-yl]-2-[2-(trifluoromethyl)pyridin-4-yl]-2,6-diazaspiro[3.5]nonane] | 10 to 50 | –
21 | COc1ncc(N2CCC3(CN(c4cnc(C(F)(F)F)nc4)C3)C2)nc1-c1nncs1 [Cmpd 1022] | – | > 100
22 | O=C1N(c2ccncc2C(F)(F)F)CCC12CCN(c1cnc3cnn(CC(F)F)c3n1)CC2 [Cmpd 677] | 10 to 50 | –
23 | FC(F)Cn1ncc2ncc(N3CCC4(CCC(Oc5cccc(C(F)(F)F)n5)C4)CC3)nc21 (stereo not drawn) [Compound 81, 8-[1-(2,2-difluoroethyl)-1H-pyrazolo[3,4-b]pyrazin-6-yl]-2-{[6-(trifluoromethyl)pyridin-2-yl]oxy}-8-azaspiro[4.5]decane] | 10 to 50 | –
24 | O=C(c1ccc(C(F)(F)F)nc1)N1CCC2(CCN(c3cnc4cnn(CC(F)F)c4n3)CC2)C1 [Cmpd 313] | 10 to 50 | –

Second part, the compound after the results:

Row | EC50 [1] [µM] | EC50 (EC50 given as range classes) [µM] | Compound
25 | 10 to 50 | – | FC(F)Cn1ncc2ncc(N3CCC4(CCN(c5cc(C(F)F)ccn5)CC4)C3)nc21 [Compound 161, 2-[1-(2,2-difluoroethyl)-1H-pyrazolo[3,4-b]pyrazin-6-yl]-8-[4-(difluoromethyl)pyridin-2-yl]-2,8-diazaspiro[4.5]decane]
26 | 10 to 50 | – | COc1nn(CC(F)F)c2nc(N3CCC4(C3)CN(c3cnc(C(F)(F)F)nc3C)C4)cnc12 [Cmpd 1093]
27 | < 10 | – | FC(F)Cn1ncc2ncc(N3CCC4(CC3)CC(COc3cnccc3C(F)(F)F)C4)nc21 [Cmpd 699]
28 | < 10 | – | Cc1nc(N2CC3(CCN(c4cnc5cnn(CC(F)(F)F)c5n4)C3)C2)cc(C(F)(F)F)n1 [Cmpd 499]
29 | 10 to 50 | – | Cc1nc(N2CCC3(C2)CN(c2cnc4c(C)nn(C5COC5)c4n2)C3)cc(C(F)(F)F)n1 [Cmpd 556]
30 | < 10 | – | O=C1N(c2cnc(C(F)(F)F)s2)CCC12CCN(c1cnc3cnn(CC(F)F)c3n1)CC2 [Cmpd 841]
31 | 10 to 50 | – | CCn1c(N2CCC3(CN(c4cc(C(F)(F)F)nc(C)n4)C3)C2)nc2c(cnn2C2COC2)c1=O [Cmpd 1115]
32 | < 10 | – | FC(F)c1ccnc(N2CCC3(CC2)CCN(c2cnc4cnn(CC(F)(F)F)c4n2)C3)c1 [Compound 162, 8-[4-(difluoromethyl)pyridin-2-yl]-2-[1-(2,2,2-trifluoroethyl)-1H-pyrazolo[3,4-b]pyrazin-6-yl]-2,8-diazaspiro[4.5]decane]
33 | 10 to 50 | – | CC(c1ccc(C(F)(F)F)nc1)N1CC2(CCN(c3cnc4cnn(CC(F)F)c4n3)CC2)CC1=O (stereo not drawn) [Cmpd 965]
34 | < 10 | – | O=C1N(Cc2cccc(C(F)(F)F)n2)CCC12CCN(c1cnc3cnn(CC(F)F)c3n1)CC2 [Cmpd 354]
35 | 10 to 50 | – | Cc1cc(N2CC3(CCN(c4cnc5cnn(CC(F)F)c5n4)C3)C2)nc(C)n1 [Cmpd 639]
36 | < 10 | – | O=C1N(c2cc(C(F)(F)F)ccn2)C(=O)C2(CCN(c3cnc4cnn(CC(F)F)c4n3)CC2)N1Cc1cccc(F)c1F [Cmpd 717]
37 | < 10 | – | Cc1nc(N2CC3(CCN(c4ncc5c(C)nn(C)c5n4)C3)C2)cc(C(F)(F)F)n1 [Cmpd 648]
38 | 10 to 50 | – | FC(F)(F)c1cc(N2CCCC3(C2)CN(c2cnc4cnn(Cc5ccccc5)c4n2)C3)ccn1 [Compound 104, 2-{1-benzyl-1H-pyrazolo[3,4-b]pyrazin-6-yl}-6-[2-(trifluoromethyl)pyridin-4-yl]-2,6-diazaspiro[3.5]nonane]
39 | 10 to 50 | – | CC1(C)CC2(CCN(c3cnc4cnn(CC(F)F)c4n3)CC2)C(=O)N1c1cc(C(F)(F)F)ccn1 [Cmpd 661]
40 | 10 to 50 | – | FC(F)Cn1ncc2ncc(N3CCC4(CC3)CC(Oc3ccc(C(F)(F)F)nc3)C4)nc21 [Cmpd 709]
41 | 10 to 50 | – | Cc1cc(N2CC3(CCN(c4cnc5cnn(C6COC6)c5n4)CC3)CC2=O)nc(C(F)(F)F)n1 [Cmpd 456]
42 | < 10 | – | FC(F)Cn1ncc2ncc(N3CCC4(CC3)CC(COc3cncc(C(F)(F)F)c3)C4)nc21 [Cmpd 696]
43 | < 10 | – | Cc1nn(C2COC2)c2nc(N3CCC4(CN(c5cnc(C(F)(F)F)nc5)C4)C3)ncc12 [Cmpd 460]
44 | 10 to 50 | – | FC(F)(F)Cn1ncc2ncc(N3CCC4(CCN(c5ccnc(C(F)(F)F)c5)C4)C3)nc21 (stereo not drawn) [Cmpd 473]
45 | < 10 | – | Cc1nc(N2CC3(CCN(c4ncc5c(C)nn(CC(C)(F)F)c5n4)C3)C2)cc(C(F)(F)F)n1 [Cmpd 1127]
46 | < 10 | – | FC(F)(F)c1cc(N2CC3(CCN(c4cnc5cnn(C[C@H]6CCO6)c5n4)C3)C2)ccn1 [Cmpd 934]
47 | < 10 | – | FC(F)(F)c1ccncc1OC1CC2(CCCN(c3cncc(-c4nncs4)n3)C2)C1 (stereo not drawn) [Compound 2, 6-[6-(1,3,4-thiadiazol-2-yl)pyrazin-2-yl]-2-{[4-(trifluoromethyl)pyridin-3-yl]oxy}-6-azaspiro[3.5]nonane]
48 | < 10 | – | O=C1N(c2ccnc(C(F)(F)F)c2)CCC12CCN(c1cnc3cnn(CC(F)F)c3n1)C2 (stereo not drawn) [Cmpd 517]

From patent US20250034170A1, “SMALL MOLECULE MODULATORS OF GLUCOCEREBROSIDASE ACTIVITY AND USES THEREOF” (Vanqua Bio, Inc., priority 2021, published 2025)
